From US20260262643A1, “HERBICIDAL BENZOXAZINES” (FMC CORPORATION, priority 2022, published 2026)

What was measured:
kochia [1] = assay: Test C postemergence; format: in vivo, Bassia scoparia; details: 10 days
In short: (§1)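 Test material, in non-phytotoxic solvent with surfactant, was sprayed on the soil directly after seeding (preemergence) or on young plants of 2–10 cm with one to two leaves (postemergence). Greenhouse, 10 days; 0–100 visual control scale.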

ryegrass, Italian [2] = assay: Test C postemergence; format: in vivo, Lolium multiflorum; details: 10 days
In short: as §1

corn [3] = assay: Test C preemergence; format: in vivo, Zea mays; details: 0 to 100 scale (0 no effect, 100 complete control)
In short: as §1

kochia [4] = assay: Test C preemergence; format: in vivo, Bassia scoparia; details: 0 to 100 scale (0 no effect, 100 complete control)
In short: as §1

barnyardgrass [5] = assay: Test C postemergence; format: in vivo, Echinochloa crusgalli; details: 10 days
In short: as §1

rice = assay: Test D flooded paddy test; format: in vivo, Oryza sativa; details: 250 g ai/ha, applied to paddy water, visual rating after 13 to 14 days, scale 0 to 100 (0 no effect, 100 complete control)
In short: (§2)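 Compounds go straight into paddy water over 2-leaf plants in pots flooded to 3 cm. Greenhouse holding lasts 13 to 14 days. Injury is scored by eye against controls from 0 (none) to 100 (complete control).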

ragweed [6] = assay: Test C postemergence; format: in vivo, Ambrosia artemisiifolia; details: 10 days
In short: as §1

soybean [7] = assay: Test C preemergence; format: in vivo, Glycine max; details: 0 to 100 scale (0 no effect, 100 complete control)
In short: as §1

green foxtail [8] = assay: Test C preemergence; format: in vivo, Setaria viridis; details: 0 to 100 scale (0 no effect, 100 complete control)
In short: as §1

corn [9] = assay: Test C postemergence; format: in vivo, Zea mays; details: 10 days
In short: as §1

ryegrass, Italian [10] = assay: Test C preemergence; format: in vivo, Lolium multiflorum; details: 0 to 100 scale (0 no effect, 100 complete control)
In short: as §1

barnyardgrass [11] = assay: Test D flooded paddy test; format: in vivo, Echinochloa crus-galli; details: 250 g ai/ha, applied to paddy water, visual rating after 13 to 14 days, scale 0 to 100 (0 no effect, 100 complete control)
In short: as §2

ducksalad = assay: Test D flooded paddy test; format: in vivo, Heteranthera limosa; details: 250 g ai/ha, applied to paddy water, visual rating after 13 to 14 days, scale 0 to 100 (0 no effect, 100 complete control)
In short: as §2

ragweed [12] = assay: Test C preemergence; format: in vivo, Ambrosia artemisiifolia; details: 0 to 100 scale (0 no effect, 100 complete control)
In short: as §1

sedge, umbrella = assay: Test D flooded paddy test; format: in vivo, Cyperus difformis; details: 250 g ai/ha, applied to paddy water, visual rating after 13 to 14 days, scale 0 to 100 (0 no effect, 100 complete control)
In short: as §2

blackgrass [13] = assay: Test C postemergence; format: in vivo, Alopecurus myosuroides; details: 10 days
In short: as §1

oat, wild [14] = assay: Test C postemergence; format: in vivo, Avena fatua; details: 10 days
In short: as §1

blackgrass [15] = assay: Test C preemergence; format: in vivo, Alopecurus myosuroides; details: 0 to 100 scale (0 no effect, 100 complete control)
In short: as §1

wheat [16] = assay: Test C postemergence; format: in vivo, Triticum aestivum; details: 10 days
In short: as §1

wheat [17] = assay: Test C preemergence; format: in vivo, Triticum aestivum; details: 0 to 100 scale (0 no effect, 100 complete control)
In short: as §1

pigweed, palmer [18] = assay: Test C postemergence; format: in vivo, Amaranthus palmeri; details: 10 days
In short: as §1

oat, wild [19] = assay: Test C preemergence; format: in vivo, Avena fatua; details: 0 to 100 scale (0 no effect, 100 complete control)
In short: as §1

barnyardgrass [20] = assay: Test C preemergence; format: in vivo, Echinochloa crusgalli; details: 0 to 100 scale (0 no effect, 100 complete control)
In short: as §1

galium = assay: Test C postemergence; format: in vivo, Galium aparine; details: 125 g ai/ha, postemergence, 10 days; 0 to 100 scale, 0 no effect, 100 complete control
In short: as §1

green foxtail [21] = assay: Test C postemergence; format: in vivo, Setaria viridis; details: 10 days
In short: as §1

pigweed, palmer [22] = assay: Test C preemergence; format: in vivo, Amaranthus palmeri; details: 0 to 100 scale (0 no effect, 100 complete control)
In short: as §1

soybean [23] = assay: Test C postemergence; format: in vivo, Glycine max; details: 10 days
In short: as §1

horseweed = assay: Test C postemergence; format: in vivo, Erigeron canadensis; details: 10 days
In short: as §1

[24] = 125 g ai/ha, postemergence, 0 to 100 scale, 0 no effect, 100 complete control
[25] = Postemergence, 500 g ai/ha, visual 0 to 100 scale (0 no effect, 100 complete control)
[26] = Preemergence, 500 g ai/ha, visual rating after 10 days
[27] = Test C, preemergence, 125 g ai/ha

Compound: CC(C)c1ncn(-c2ccc(SC(F)(F)F)c(C(=O)N3C[C@H](C)Oc4c(Cl)cccc43)c2)n1 [Compound 249]
- Plant response rating, Kochia (kochia [1]; [24]): 50
- Plant response rating, Kochia (kochia [1]; [25]): 80
- Plant response rating, Ryegrass, Italian (ryegrass, Italian [2]; [24]): 0
- Plant response rating, Ryegrass, Italian (ryegrass, Italian [2]; [25]): 0
- Plant response rating, Corn (corn [3]; [26]): 0
- Corn plant response rating (corn [3]; [27]): 0
- Plant response rating, Kochia (kochia [4]; [26]): 0
- Kochia plant response rating (kochia [4]; [27]): 0
- Plant response rating, Barnyardgrass (barnyardgrass [5]; [24]): 10
- Plant response rating, Barnyardgrass (barnyardgrass [5]; [25]): 10
- Plant response rating, Rice (Flood) (rice): 0
- Plant response rating, Ragweed (ragweed [6]; [24]): 0
- Plant response rating, Ragweed (ragweed [6]; [25]): 0
- Plant response rating, Soybean (soybean [7]; [26]): 20
- Soybean plant response rating (soybean [7]; [27]): 0
- Plant response rating, Foxtail, Green (green foxtail [8]; [26]): 90
- Foxtail, Green plant response rating (green foxtail [8]; [27]): 90
- Plant response rating, Corn (corn [9]; [24]): 0
- Plant response rating, Corn (corn [9]; [25]): 10
- Plant response rating, Ryegrass, Italian (ryegrass, Italian [10]; [26]): 60
- Ryegrass, Italian plant response rating (ryegrass, Italian [10]; [27]): 40
- Plant response rating, Barnyardgrass (Flood) (barnyardgrass [11]): 0
- Plant response rating, Ducksalad (Flood) (ducksalad): 0
- Plant response rating, Ragweed (ragweed [12]; [26]): 0
- Ragweed plant response rating (ragweed [12]; [27]): 0
- Plant response rating, Sedge, Umbrella (Flood) (sedge, umbrella): 0
- Plant response rating, Blackgrass (blackgrass [13]; [24]): 0
- Plant response rating, Blackgrass (blackgrass [13]; [25]): 0
- Plant response rating, Oat, Wild (oat, wild [14]; [24]): 0
- Plant response rating, Oat, Wild (oat, wild [14]; [25]): 0
- Plant response rating, Blackgrass (blackgrass [15]; [26]): 60
- Blackgrass plant response rating (blackgrass [15]; [27]): 20
- Plant response rating, Wheat (wheat [16]; [24]): 10
- Plant response rating, Wheat (wheat [16]; [25]): 10
- Plant response rating, Wheat (wheat [17]; [26]): 0
- Wheat plant response rating (wheat [17]; [27]): 0
- Plant response rating, Pigweed, Palmer (pigweed, palmer [18]; [24]): 40
- Plant response rating, Pigweed, Palmer (pigweed, palmer [18]; [25]): 70
- Plant response rating, Oat, Wild (oat, wild [19]; [26]): 0
- Oat, Wild plant response rating (oat, wild [19]; [27]): 0
- Plant response rating, Barnyardgrass (barnyardgrass [20]; [26]): 20
- Barnyardgrass plant response rating (barnyardgrass [20]; [27]): 20
- Plant response rating, Galium (galium): 90
- Plant response rating, Foxtail, Green (green foxtail [21]; [24]): 30
- Plant response rating, Foxtail, Green (green foxtail [21]; [25]): 30
- Plant response rating, Pigweed, Palmer (pigweed, palmer [22]; [26]): 30
- Pigweed, Palmer plant response rating (pigweed, palmer [22]; [27]): 30
- Plant response rating, Soybean (soybean [23]; [24]): 100
- Plant response rating, Soybean (soybean [23]; [25]): 100
- Plant response rating, Horseweed (horseweed; [24]): 0
- Plant response rating, Horseweed (horseweed; [25]): 0
